The test system of series [1] is Blumeria graminis fsp. hordei. The experiment in a line: In vivo Blumeria test (barley)/preventive. The note with it: preventive, 500 ppm of active ingredient, evaluated 7 days after inoculation. On the procedure: (§1) Example: In Vivo Blumeria Test (Barley)/Preventive Solvent: 49 parts by weight of N,N-dimethylacetamide Emulsifier: 1 part by weight of alkylaryl polyglycol ether To produce a suitable preparation of active compound, 1 part by weight of active compound or active compound combination is mixed with the stated amounts of solvent and emulsifier, and the concentrate is diluted with water to the desired concentration. To test for preventive activity, young plants are sprayed with the preparation of active compound or active compound combination at the stated rate of application. After the spray coating has been dried, the plants are dusted with spores of Blumeria graminis fsp. hordei.

A further series deals with Pyricularia oryzae. It is filed as in vivo. Conditions: rice plants, preventive spray, 500 ppm, grading 6 days after contamination.
Another series concerns Sphaerotheca fuliginea. The experiment in a line: In vivo preventive test on Sphaerotheca fuliginea (powdery mildew on cucurbits). Conditions: gherkin plants, preventive spray, 500 ppm, grading 12 days after contamination. The procedure, abridged:
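Gherkin plants grown at 24 °C sprayed with compound at the Z11 cotyledon stage, then inoculated 24 h later with Sphaerotheca fuliginea spores (100 000 spores per ml). Percent efficacy graded 12 days post-inoculation against solvent-treated controls; tested dose 500 ppm.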

A further series deals with Uromyces appendiculatus. The experiment in a line: In vivo preventive test on Uromyces appendiculatus (bean rust). Conditions: bean plants, preventive spray, 500 ppm, grading 11 days after contamination. The procedure, abridged: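 Saxa bean plants grown at 24° C were sprayed at the 2-leaf stage, then inoculated 24 h later with U. appendiculatus spores (150 000 spores per ml). Untreated controls got the acetone/tween/DMSO/water mix only. % efficacy was graded 11 days post-inoculation relative to controls, at 500 ppm.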

The subject of a further series is Puccinia recondita. Nature of the series: In vivo preventive test on Puccinia recondita (brown rust on wheat). The note with it: wheat plants, preventive spray, 500 ppm, grading 12 days after contamination. An outline of the steps:
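Wheat (Scipion) at the 1-leaf stage, grown at 22 °C, was sprayed preventively with compound; solvent-treated plants served as controls. After 24 h, leaves were inoculated with Puccinia spores (100 000/ml). Percent efficacy versus controls was graded 12 days post-inoculation.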

In another series the test system is Botrytis cinerea. Nature of the series: In vivo preventive test on Botrytis cinerea (grey mould). Conditions: gherkin plants, preventive spray, 500 ppm, grading 4 to 5 days after contamination. The procedure, abridged:
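Sprayed gherkin plants (“Vert petit de Paris”) at Z11 cotyledon stage, grown at 24° C, inoculated 24 h later with Botrytis cinerea spores (50 000 spores per ml) in nutrient solution. Efficacy graded 4 to 5 days post-inoculation as % versus solvent-treated controls.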

Series [2] is described as follows: logP by HPLC on reversed phase columns (EEC directive 79/831 Annex V.A8). The note with it: method [a]: LC-MS at pH 2.7, 0.1% formic acid in water / acetonitrile gradient 10% to 95%.
Another series concerns Pyrenophora teres. The experiment in a line: In vivo preventive test on Pyrenophora teres (net blotch on barley). Conditions: barley plants, preventive spray, 500 ppm, grading 14 days after contamination. An outline of the steps: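 Barley (Plaisant) at the 1-leaf stage was sprayed with compound, then inoculated 24 h later with P. teres spores (12 000 spores per ml). Solvent-only plants served as controls. Efficacy (%) versus controls was graded 14 days after contamination.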

In a further series the test system is Leptosphaeria nodorum. Nature of the series: In vivo Leptosphaeria nodorum test (wheat)/preventive. Conditions: preventive, 500 ppm of active ingredient, evaluated 8 days after inoculation. On the procedure:
as §1, with “Leptosphaeria nodorum” for “Blumeria”, “(Wheat)/Preventive” for “(Barley)/Preventive”, “sprayed” for “dusted”, “a spore suspension” for “spores”, “Leptosphaeria nodorum.” for “Blumeria graminis fsp. hordei.”

This is an account of results in patent US9765034B2, “5-halogenopyrazole biphenylcarboxamides” (BAYER CROPSCIENCE AG, priority 2012, dated 2017).

On to `CCON=Cc1ccc(-c2ccccc2NC(=O)c2c(C(F)F)nn(C)c2F)cc1` [Example 7], for which the Eff. % in [1] is given as 100%; with Pyricularia oryzae, 90%; in the series on Sphaerotheca fuliginea, 100%; with Uromyces appendiculatus, 100%; with Puccinia recondita, 94%; in the series with Botrytis cinerea, 85%. For the same compound, the Eff. % in the series with Pyrenophora teres stood at 100%; with Leptosphaeria nodorum, 90%. Also, the logP in series [2] was 3.87[a].
